The target of test [1] is T1, MMP-9 (Homo sapiens, UniProt P14780).
T1 construct: made in house
Type of test: biochemical. Particulars: 6 µM P218 substrate, pH 6.5, 25 min at 37°C; calculated from IC50; read-out: MMP-9 Kf. The source says: (§1) The P218 quenched fluorescence assay (Microfluorometric Profiling Assay) is a modification of that originally described by Knight, et al., FEBS Lett. 296, 263, 1992 for a related substance and a variety of matrix metalloproteinases (MMPs) in cuvettes. The assay was run with each invention compound and the three MMPs, Mmp-3, MMP-9 and MMP-2, analyzed in parallel, adapted as follows for a 96-well microtiter plate and a Hamilton AT® workstation. P218 Fluorogenic Substrate: P218 is a synthetic substrate containing a 4-acetyl-7-methoxycoumarin (MCA) group in the N-terminal position and a 3-[2, 4-dinitrophenyl]-L-2,3-diaminopropionyl (DPA) group internally. This is a modification of a peptide reported by Knight (1992) that was used as a substrate for matrix metalloproteinases. Once the P218 peptide is cleaved (putative clip site at the Ala-Leu bond), the fluorescence of the MCA group can be detected on a fluorometer with excitation at 328 nm and emission at 393 nm. P218 is currently being produced BACHEM exclusively for Bayer. P218 has the structure: H-MCA-Pro-Lys-Pro-Leu-Ala-Leu-DPA-Ala-Arg-NH2 (MW 1332.2)
Recombinant Human Pro-MMP-9: Human pro-gelatinase B (pro-MMP-9) derived from U937 cDNA as described by Wilhelm, et al. J. Biol. Chem. 264, 17213, 1989 was expressed as the full-length form using a baculovirus protein expression system. The pro-enzyme was purified using methods previously described by Hibbs, et al. J. Biol. Chem. 260, 2493, 1984.
Activation of Pro-MMP-9: […] 20 µg/mL in 50 mM Tris at pH 7.4, 10mM CaCl2, 150 mM NaCl, and 0.005% Brij-35 (MMP-9 activation buffer) was activated by incubation with 0.5 mM p-aminophenylmercuric acetate (APMA) for 3.5 h at 37 °C. The enzyme was dialyzed against the same buffer to remove the APMA.
(§2) Hamiltion Microlab AT P!us: The MMP-Profiling Assay is performed robotically on a Hamilton MicroLab AT Plus®. The Hamilton is programmed to: (1) serially dilute up to 11 potential inhibitors automatically from a 2.5 mM stock in 100% DMSO; (2) distribute substrate followed by inhibitor into a 96 well Cytofluor plate; and (3) add a single enzyme to the plate with mixing to start the reaction. Subsequent plates for each additional enzyme are prepared automatically by beginning the program at the substrate addition point, remixing the diluted inhibitors and beginning the reaction by addition of enzyme. In this way, all MMP assays were done using the same inhibitor dilutions.
(§3) Millipore Cytofluor II. Following incubation, the plate was read on a Cytofluor II fluorometric place reader with excitation at 340 nm and emission at 395 nm with the gain set at 80.
(§4) Microfluorometric Reaction Buffer (MRB): Dilution of test compounds, enzymes, and P218 substrate for the microfluorometric assay were made in microfluorometric reaction buffer consisting of 50 mM 2-(N-morpholino)ethanesulfonic acid (MES) at pH 6.5 with 10 mM CaCl2, 150 mM NaCl, 0.005% Brij-35 and 1% DMSO.
(§5) MMP Microfluorometric Profiling Assay. The assay is done with a final substrate concentration of 6 µM P218 and approximately .5 to .8 nM MMP with variable drug concentrations. The Hamilton is programmed to serially dilute up to 11 compounds from a 2.5 mM stock (100% DMSO) to 10x the final compounds concentrations in the assay. Initially, the instrument delivers various amounts of microfluoromentric reaction buffer (MRB) to a 96 tube rack of 1 ml Marsh dilution tubes. The instrument then picks up 20 µl of inhibitor (2.5 mM) from the sample rack and mixes it with a buffer in row A of the Marsh rack, resulting in a 50 µM drug concentration. The inhibitors are then serially diluted to 10, 5, 1, .2, .05 and .01 µM. Position 1 on the sample rack contains only DMSO for the "enzyme-only" wells in the assay, which results in no inhibitor in column 1, rows A through H. The instrument then distributes 107 µl of P218 substrate (8.2 µM in MRB) to a single 96 well cytofluor microtiter plate. […]

Test [2] concerns the target T2, MMP-2 (Homo sapiens, UniProt P08253).
T2 sequence (P08253 110-660): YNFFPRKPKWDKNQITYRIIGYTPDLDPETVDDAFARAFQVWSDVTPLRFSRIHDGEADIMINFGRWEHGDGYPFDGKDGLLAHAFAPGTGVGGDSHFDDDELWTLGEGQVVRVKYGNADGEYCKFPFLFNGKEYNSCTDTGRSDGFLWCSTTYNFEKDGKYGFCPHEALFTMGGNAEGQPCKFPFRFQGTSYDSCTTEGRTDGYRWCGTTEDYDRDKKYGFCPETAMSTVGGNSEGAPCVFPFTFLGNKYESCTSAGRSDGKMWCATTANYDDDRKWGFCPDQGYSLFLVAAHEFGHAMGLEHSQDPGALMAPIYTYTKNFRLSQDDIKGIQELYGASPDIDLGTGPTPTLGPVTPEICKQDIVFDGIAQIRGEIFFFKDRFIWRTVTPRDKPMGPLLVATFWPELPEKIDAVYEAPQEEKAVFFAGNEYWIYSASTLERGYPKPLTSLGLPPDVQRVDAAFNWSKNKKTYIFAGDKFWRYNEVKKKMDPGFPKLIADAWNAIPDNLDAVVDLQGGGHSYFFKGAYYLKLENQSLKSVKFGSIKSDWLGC
Kind of test: biochemical.

In test [3] the target is T3, MMP-3 (Homo sapiens, UniProt P08254).
T3 construct: made in house; host or cells: CHO cells
It is filed as biochemical. Particulars: 6 µM P218 substrate, pH 6.5, 25 min at 37°C; calculated from IC50; read-out: MMP-3 Kf.
Text: as §1
Recombinant Human CHO Pro-MMP-3: Human CHO pro-stromelysin-257 (pro-MMP-3) was expressed and purified as described by Housley, et al., J. Biol. Chem. 268, 4481, 1993.
Activation of Pro-MMP-3 Pro-MMP-3 at 1.72 µM (100 µg/mL) in 5 mM Tris at pH 7.5, 5 mM CaCl2, 25 mM NaCl, and 0.005% Brij-35 (MMP-3 activation buffer) was activated by incubation with TPCK (N-tosyl-(L)-phenylalanine chloromethyl ketone) trypsin (1:100 w/w to pro-MMP-3) at 25 °C for 30 min. The reaction was stopped by addition of soybean trypsin inhibitor (SBTI: 5:1 w/w to trypsin concentration). This activation protocol results in the formation of 45 kDa active MMP-3, which still contains the C-terminal portion of the enzyme.
as §2, §3, §4, §5

T1 sequence (P14780 107-707 limits assumed): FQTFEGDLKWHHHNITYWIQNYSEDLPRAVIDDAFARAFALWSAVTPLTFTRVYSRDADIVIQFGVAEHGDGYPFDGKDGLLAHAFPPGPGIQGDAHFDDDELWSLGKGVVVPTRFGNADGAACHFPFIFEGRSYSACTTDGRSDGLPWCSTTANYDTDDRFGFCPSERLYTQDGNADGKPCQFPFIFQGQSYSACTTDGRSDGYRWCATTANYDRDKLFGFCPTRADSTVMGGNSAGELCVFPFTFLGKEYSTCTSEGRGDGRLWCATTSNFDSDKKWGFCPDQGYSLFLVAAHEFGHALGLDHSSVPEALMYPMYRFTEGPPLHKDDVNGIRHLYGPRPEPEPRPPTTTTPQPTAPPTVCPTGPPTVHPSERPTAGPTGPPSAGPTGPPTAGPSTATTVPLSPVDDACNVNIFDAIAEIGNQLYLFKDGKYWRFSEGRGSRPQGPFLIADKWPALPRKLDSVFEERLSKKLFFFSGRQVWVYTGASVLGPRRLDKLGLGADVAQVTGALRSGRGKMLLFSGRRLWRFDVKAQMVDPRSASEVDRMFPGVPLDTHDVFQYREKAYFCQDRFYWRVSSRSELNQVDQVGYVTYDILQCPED
T3 sequence (P08254 100-477): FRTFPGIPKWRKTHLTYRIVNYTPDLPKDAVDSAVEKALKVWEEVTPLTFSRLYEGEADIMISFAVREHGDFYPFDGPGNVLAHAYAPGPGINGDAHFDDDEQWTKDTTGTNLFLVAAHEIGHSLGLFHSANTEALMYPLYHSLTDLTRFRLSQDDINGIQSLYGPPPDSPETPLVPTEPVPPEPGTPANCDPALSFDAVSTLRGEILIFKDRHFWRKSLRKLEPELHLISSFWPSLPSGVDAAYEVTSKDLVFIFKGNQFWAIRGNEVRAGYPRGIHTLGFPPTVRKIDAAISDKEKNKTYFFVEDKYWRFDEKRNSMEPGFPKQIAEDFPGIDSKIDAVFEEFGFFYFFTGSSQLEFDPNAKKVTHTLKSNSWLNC

For `O=C(CC(CCc1cccc(C(=O)NCCc2ccccc2)c1)C(=O)O)c1ccc(-c2ccc(Cl)cc2)cc1` (stereo not drawn) [XII, 4'-chloro-γ-oxo-α-[2-[3-[[(2-phenylethyl)amino]carbonyl]phenyl]ethyl]-[1,1'-biphenyl]-4-butanoic acid], the figures for the Ki in test [1], in test [2] and in test [3] were 2650 nM, 125 nM and 450 nM, respectively.

On to `O=C(CC(CCc1cccc(C(=O)NCCCc2ccccc2)c1)C(=O)O)c1ccc(-c2ccc(Cl)cc2)cc1` (stereo not drawn) [XIII, 4'-chloro-γ-oxo-α-[2-[3[[(3-phenylpropyl)amino]carbonyl]phenyl]ethyl]-[1,1'-biphenyl]-4-butanoic acid], for which the Ki was 552 nM in test [1], 157 nM in test [2] and 236 nM in test [3].

On to `CC(C)CCNC(=O)c1cccc(CCC(CC(=O)c2ccc(-c3ccc(Cl)cc3)cc2)C(=O)O)c1` (stereo not drawn) [XIV, 4'-chloro-α-[2-[3-[[(3-methylbutyl)amino]carbonyl]phenyl]ethyl]-γ-oxo-[1,1'-biphenyl]-4-butanoic acid], for which the figures for the Ki in test [1], in test [2] and in test [3] were 707 nM, 110 nM and 308 nM, respectively.

With `CCOC(=O)CNC(=O)c1ccc(CCC(CC(=O)c2ccc(-c3ccc(Cl)cc3)cc2)C(=O)O)cc1` (stereo not drawn) [XIX, 4'-chloro-α-[2-[4-[[(2-ethoxy-2-oxoethyl)amino]carbonyl]phenyl]ethyl]-γ-oxo[1,1'-biphenyl]4-butanoic acid], the figures for the Ki in test [1], in test [2] and in test [3] were 423 nM, 82.3 nM and 376 nM, respectively.

With `O=C(CC(CCc1cccc(C(=O)NCc2ccccc2)c1)C(=O)O)c1ccc(-c2ccc(Cl)cc2)cc1` (stereo not drawn) [XV, 4'-chloro-γ-oxo-α-[2-[3-[[(phenylmethyl)amino]carbonyl]phenyl]ethyl]-[1,1'-biphenyl]-4-butanoic acid], the Ki in test [1] is 493 nM; in test [2] it was 104 nM; in test [3], 364 nM.

For the molecule `CCOC(=O)CN(C)C(=O)c1cccc(CCC(CC(=O)c2ccc(-c3ccc(Cl)cc3)cc2)C(=O)O)c1` (stereo not drawn) [XVI, 4'-chloro-α-[2-[3-[[(2-ethoxy-2-oxoethyl)methylamino]carbonyl]phenyl]ethyl]-γ-oxo-[1,1'-biphenyl]-4-butanoic acid], the figures for the Ki in test [1], in test [2] and in test [3] were 137 nM, 9.86 nM and 24.8 nM, respectively.

With `CC(C)CCNC(=O)c1ccc(CCC(CC(=O)c2ccc(-c3ccc(Cl)cc3)cc2)C(=O)O)cc1` (stereo not drawn) [XVIII, 4'-chloro-α-[2-[4-[[(3-methylbutyl)amino]carbonyl]phenyl]ethyl]-γ-oxo-[1,1'-biphenyl]-4-butanoic acid], the Ki was 452 nM in test [1], 137 nM in test [2] and 677 nM in test [3].
